The experiment deals with T1, human mAChR M4 (Homo sapiens, UniProt P08173).
T1 sequence (P08173 1-479): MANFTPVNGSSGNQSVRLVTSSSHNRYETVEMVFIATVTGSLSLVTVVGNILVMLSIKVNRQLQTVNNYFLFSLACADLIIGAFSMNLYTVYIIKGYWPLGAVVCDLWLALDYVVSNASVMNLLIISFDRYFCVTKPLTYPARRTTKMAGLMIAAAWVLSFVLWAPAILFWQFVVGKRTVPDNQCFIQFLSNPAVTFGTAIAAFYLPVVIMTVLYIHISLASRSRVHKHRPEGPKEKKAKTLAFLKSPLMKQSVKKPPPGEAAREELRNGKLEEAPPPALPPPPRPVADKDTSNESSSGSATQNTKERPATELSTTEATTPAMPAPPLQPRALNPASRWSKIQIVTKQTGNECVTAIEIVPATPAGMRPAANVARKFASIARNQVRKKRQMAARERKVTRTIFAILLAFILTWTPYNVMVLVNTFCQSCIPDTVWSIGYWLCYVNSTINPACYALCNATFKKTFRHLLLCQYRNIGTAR
Description: mAChR M4 cell-based functional assay (calcium flux), human M4. Particulars: Table 10; for EC50: Human M4 EC50 (nM); for Emax: % ACh maximum at 30 μM. In general terms: Calcium assays in cells follow changes in intracellular calcium, usually with a dye or a luminescent sensor.

Setting [1] is: calcium flux, PAM activity with EC20 acetylcholine.

Where a name gives a salt, the structure may show the parent alone. A value given as a limit tells only on which side of the number the result lay.

What is called EC50 is the concentration that produces a half-maximal response. A word on the Emax: it is the size of the effect at its maximum, as opposed to the concentration needed.

`Cc1c(Cl)nnc2sc3c(N4CCCC4)ncnc3c12` [Compound 209, 3-chloro-4-methyl-8-pyrrolidin-1-yl-pyrimido[4′,5′:4,5] thieno[2,3-c]pyridazine]: the Emax came to 89.9%. Moreover, under setting [1], the EC50 worked out at 55.5 nM. On to `Cc1c(Cl)nnc2sc3c(NC4CCC4)ncnc3c12` [Compound 210, 3-chloro-N-cyclobutyl-4-methyl-pyrimido [4′,5′:4,5]thieno[2,3-c] pyridazin-8-amine], for which the Emax worked out at 65.1%. In addition, the EC50 under setting [1] was found to be 44.6 nM. On to `Cc1c(Cl)nnc2sc3c(NCc4ccc(OC(F)F)nc4)ncnc3c12` [Compound 211, 3-chloro-N-[[6-(difluoromethoxy)-3-pyridyl]methyl]-4-methyl-pyrimido [4′,5′:4,5]thieno[2,3-c] pyridazin-8-amine], for which the Emax worked out at 68.5%. The EC50 under setting [1] came out at 787 nM. The corresponding values for `COc1ccc(CNc2ncnc3c2sc2nnc(Cl)c(C)c23)cc1F` [Compound 212, 3-chloro-N-[(3-fluoro-4-methoxy-phenyl)methyl]-4-methyl-pyrimido[4′,5′:4,5] thieno[2,3-c]pyridazin-8-amine] are 80% and 405 nM.

Turning to `Cc1c(Cl)nnc2sc3c(NCc4ccc(C(C)(C)O)cc4)ncnc3c12` [Compound 213], the Emax worked out at 97.3%. Consider `Cc1c(Cl)nnc2sc3c(NC4CN(c5ncc(C(F)(F)F)cn5)C4)ncnc3c12` [Compound 214, 3-chloro-4-methyl-N-[1-[5-(trifluoromethyl)pyrimidin-2-yl]azetidin-3-yl] pyrimido[4′,5′:4,5] thieno[2,3-c]pyridazin-8-amine], for which the Emax amounted to 105%. The EC50 under setting [1] stood at 420 nM. In the same order, the values of `Cc1c(Cl)cnc2sc3c(N4CCCC4)ncnc3c12` [Compound 215, 8-chloro-9-methyl-4-pyrrolidin-1-yl-pyrido [3′,2′:4,5]thieno[3,2-d] pyrimidine] are 45% and 5980 nM.

For `Cc1c(Cl)cnc2sc3c(N4CCC(F)(F)C4)ncnc3c12` [Compound 216, 8-chloro-4-(3,3-difluoropyrrolidin-1-yl)-9-methyl-pyrido [3′,2′:4,5]thieno[3,2-d] pyridimidine], the maximal effect (Emax) was 52.4%. Moreover, the EC50 under setting [1] was 685 nM.

With `COCC1CN(c2ncnc3c2sc2ncc(Cl)c(C)c23)C1` [Compound 218, 8-chloro-4-[3-(methoxymethyl)azetidin-1-yl]-9-methyl-pyrido [3′,2′:4,5]thieno[2,3-d] pyrimidine], the Emax is 51.3%. Further, the EC50 under setting [1] amounted to 1020 nM.

On to `Cc1c(Cl)cnc2sc3c(N4CC5CC5C4)ncnc3c12` (centres unmarked) [Compound 219, 4-(3-azabicyclo[3.1.0]hexan-3-yl)-8-chloro-9-methyl-pyrido [3′,2′:4,5]thieno[3,2-d] pyrimidine], for which the Emax came to 47.8%. Further, the concentration giving a half-maximal response (EC50) under setting [1] worked out at 555 nM. In the same order, the values of `Cc1c(Cl)cnc2sc3c(N4CCC(F)C4)ncnc3c12` (centres unmarked) [Compound 220, 8-chloro-4-(3-fluoropyrrolidin-1-yl)-9-methyl-pyrido [3′,2′:4,5]thieno[3,2-d] pyrimidine] are 63.8% and 885 nM. On to `Cc1c(Cl)cnc2sc3c(N4CCC4)ncnc3c12` [Compound 221, 4-(azetidin-1-yl)-8-chloro-9-methyl-pyrido[3′,2′:4,5] thieno[3,2-d] pyrimidine], for which the Emax came to 40.6%. Also, the EC50 under setting [1] worked out at 867 nM. The corresponding values for `Cc1c(Cl)cnc2sc3c(N4CC(F)(F)C4)ncnc3c12` [Compound 223, 8-chloro-4-(3,3-difluoroazetidin-1-yl)-9-methyl-pyrido [3′,2′:4,5]thieno[3,2-d] pyrimidine] are 44% and 931 nM. In the same order, the values of `Cc1c(Cl)cnc2sc3c(N4CC(c5ccncc5)C4)ncnc3c12` [Compound 224, 8-chloro-9-methyl-4-[3-(4-pyridyl)azetidin-1-yl]pyrido [3′,2′:4,5]thieno[3,2-d] pyrimidine] are 57.6% and 102 nM. In the case of `Cc1c(Cl)cnc2sc3c(NC4CN(c5ncc(F)cn5)C4)ncnc3c12` [Compound 225, 8-chloro-N-[1-(5-fluoropyrimidin-2-yl)azetidin-3-yl]-9-methyl-pyrido [3′,2′:4,5]thieno[3,2-d] pyrimidin-4-amine], the Emax was found to be 63%. For the same compound, under setting [1], the 50% effective concentration (EC50) was 841 nM.

As to `Cc1c(Cl)cnc2sc3c(NC4(C)CC4)ncnc3c12` [Compound 226, 8-chloro-9-methyl-N-(1-methylcyclopropyl) pyrido[3′,2′:4,5]thieno [3,2-d]pyrimidin-4-amine], the maximal effect (Emax) was 49%. The EC50 under setting [1] amounted to 481 nM. In the same order, the values of `Cc1c(Cl)cnc2sc3c(NC4CC4(C)C)ncnc3c12` (centres unmarked) [Compound 227, 8-chloro-N-(2,2-dimethylcyclopropyl)-9-methyl-pyrido[3′,2′:4,5] thieno[3,2-d] pyrimidin-4-amine] are 56.2% and 665 nM. Take `Cc1c(Cl)cnc2sc3c(NC4CCC4)ncnc3c12` [Compound 228, 8-chloro-N-cyclobutyl-9-methyl-pyrido [3′,2′:4,5]thieno[3,2-d] pyrimidin-4-amine]: the Emax was determined as 70%. For the same compound, the EC50 under setting [1] came to 3230 nM.

On to `Cc1c(Cl)cnc2sc3c(NCc4ccc(C(=O)N(C)C)cc4)ncnc3c12` [Compound 229, 4-[[(8-chloro-9-methyl-pyrido [3′,2′:4,5]thieno[3,2-d]pyrimidin-4-yl)amino]methyl]-N,N-dimethyl-benzamide], for which the Emax turned out to be 54.5%. For the same compound, under setting [1], the EC50 came out at 1920 nM. On to `COc1cc(CNc2ncnc3c2sc2ncc(Cl)c(C)c23)cc(OC)c1` [Compound 230, 8-chloro-N-[(3,5-dimethoxyphenyl)methyl]-9-methyl-pyrido [3′,2′:4,5]thieno[3,2-d] pyrimidin-4-amine], for which the Emax worked out at 37.3%. The EC50 (unit μM (bounds)) is more than 10000 nM. On to `Cc1c(Cl)cnc2sc3c(NC4CN(c5cc(Cl)ncc5Cl)C4)ncnc3c12` [Compound 231, 8-chloro-N-[1-(2,5-dichloro-4-pyridyl)azetidin-3-yl]-9-methyl-pyrido [3′,2′:4,5]thieno[3,2-d] pyrimidin-4-amine], for which the maximal response (Emax) is 44.3%. Besides, the EC50 under setting [1] stood at 3710 nM. In the same order, the values of `Cc1c(Cl)cnc2sc3c(NCc4ccc(CN5CCOCC5)cc4)ncnc3c12` [Compound 232, 8-chloro-9-methyl-N-[[4-(morpholinomethyl)phenyl]methyl]pyrido [3′,2′:4,5]thieno[3,2-d] pyrimidin-4-amine] are 69.8% and 9780 nM. In the same order, the values of `Cc1c(Cl)cnc2sc3c(NCc4ccc5c(c4)CC(C)(C)O5)ncnc3c12` [Compound 233, 8-chloro-N-[(2,2-dimethyl-3H-benzofuran-5-yl)methyl]-9-methyl-pyrido [3′,2′:4,5]thieno[3,2-d] pyrimidin-4-amine] are 40.6% and 5510 nM. On to `Cc1c(Cl)cnc2sc3c(NCc4ccc5c(c4)COC5)ncnc3c12` [Compound 234, 8-chloro-N-(1,3-dihydroisobenzofuran-5-ylmethyl)-9-methyl-pyrido [3′,2′:4,5]thieno[3,2-d] pyrimidin-4-amine], for which the Emax turned out to be 56.1%. In addition, under setting [1], the EC50 turned out to be 5580 nM.

For `Cc1c(Cl)cnc2sc3c(NCc4cnc5c(c4)CCC5)ncnc3c12` [Compound 235, 8-chloro-N-(6,7-dihydro-5H-cyclopenta[b]pyridin-3-ylmethyl)-9-methyl-pyrido [3′,2′:4,5]thieno[3,2-d] pyrimidin-4-amine], the Emax came to 31.8%. Also, the EC50 under setting [1] is 2890 nM. With `COc1ccc(C2CC2Nc2ncnc3c2sc2ncc(Cl)c(C)c23)cc1` (centres unmarked) [Compound 236, 8-chloro-N-[2-(4-methoxyphenyl)cyclopropyl]-9-methyl-pyrido [3′,2′:4,5]thieno[3,2-d] pyrimidin-4-amine dihydrochloride], the Emax worked out at 61.2%. The EC50 under setting [1] was determined as 5660 nM.

Regarding `Cc1c(Cl)cnc2sc3c(NCc4ccc(S(C)(=O)=O)cc4)ncnc3c12` [Compound 237, 8-chloro-9-methyl-N-[(4-methylsulfonylphenyl)methyl]pyrido [3′,2′:4,5]thieno[3,2-d] pyrimidin-4-amine dihydrochloride], the Emax was determined as 54.5%. For the same compound, the half-maximal effective concentration (EC50) under setting [1] worked out at 1320 nM. On to `Cc1ncc(CNc2ncnc3c2sc2ncc(Cl)c(C)c23)cn1` [Compound 238, 8-chloro-9-methyl-N-[(2-methylpyrimidin-5-yl)methyl]pyrido [3′,2′:4,5]thieno[3,2-d] pyrimidin-4-amine dihydrochloride], for which the Emax was found to be 61%. In addition, the EC50 under setting [1] is 382 nM.

Turning to `Cc1nc2sc3c(NC4CN(c5ccnc(C6(O)CCC6)c5)C4)ncnc3c2c(C)c1Cl` [Compound 239, 1-[4-[3-[(8-chloro-7,9-dimethyl-pyrido [3′,2′:4,5]thieno[3,2-d]pyrimidin-4-yl)amino]azetidin-1-yl]-2-pyridyl]cyclobutanol], the Emax was 72.3%. Also, the EC50 under setting [1] is 1920 nM. Regarding `Cc1nc2oc3c(NC4CN(c5ncc(C(F)(F)F)cn5)C4)ncnc3c2c(C)c1Cl` [Compound 241, 8-chloro-7,9-dimethyl-N-[1-[5-(trifluoromethyl)pyrimidin-2-yl]yl]azetidin-3-yl]pyrido [3′,2′:4,5]furo[3,2-d] pyrimidin-4-amine hydrochloride], the Emax was 39.7%. Moreover, the EC50 under setting [1] was 1010 nM.

Values taken from patent US10239887B2, “Positive allosteric modulators of the muscarinic acetylcholine receptor M4” (Vanderbilt University, priority 2016, dated 2019).
